# Assay results reported in US11458134B2, “1-[2-(2,4-dimeihylphenylsulfanyl)-phenyl]piperazine as a compound with combined serotonin reuptake, 5-HT3 and 5-HT1A activity for the treatment of cognitive impairment” (H. Lundbeck A/S, priority 2006, dated 2022).
# Like-named read-outs stand apart in the source and are kept apart here.
# What was measured:
# [1] = system: Sprague-Dawley rats; assay: Contextual fear conditioning in rats; format: in vivo; details: for time spent freezing during the retention test: 24 h after acquisition
# Excerpt: The compound administered in the present experiment was 1-[2-(2,4-dimethylphenylsulfanyl)phenyl]piperazine HBr salt.
# We have studied the effect of the compound on acquisition, consolidation and recall of contextual fear conditioning in rats. In the fear conditioning paradigm animals learn to associate a neutral environment (context, the training chamber, CS) with an aversive experience (an electrical foot-shock, US). During re-exposure to the training chamber, animals express a freezing behaviour, which is taken as a direct measure of the fear-related memory [Pavlov J. Biol. Sci., 15, 177-182, 1980]. […] Neurosci., 106, 274-285, 1992].
# Adult male Sprague-Dawley rats (weighing 250-300 g at time of training) from Charles River Laboratories, housed two per cage under a 12 h light/dark cycle, were used. Food and water were available ad libitum. Rats were used 1 week after arrival. The compound was dissolved in 10% HPbetaCD and injected subcutaneously. The drug was administered in a volume of 2.5 ml/kg.
# Training and testing were conducted in a soundproof chamber (30×20×40 cm) housed in an isolated room and connected to a ventilation system. Illumination was provided by a white light (60 Watt). The floor of the chamber consisted of a metal grid attached to an electric shock generator. Prior to training and testing, the chamber was cleaned with a 70% ethanol solution. A video camera allowed for behavioral observations and recording of the training session for off-line analysis.
# During the acquisition animals were allowed to freely explore the novel environment for a 1 min habituation period, which co-terminated with one inescapable foot-shock (unconditioned stimulus, US) through the electrifiable grid floor. […] Animals remained in the conditioning chamber for another 60 s after the US. Freezing behaviour was scored during the first 58 s (pre-shock acquisition; experimenter blinded to groups) to determine baseline-freezing responses to the context. At the end of the acquisition animals were gently removed and placed into their home cages. After 24 h the same animals were reintroduced into the training context (fear conditioning chamber) and a 2 min retention test was performed. During this period no foot shocks were applied. Freezing behaviour was scored during the whole test period with the experimenter blinded to groups and presented as percent of total test period.
# [2] = system: acetylcholine; assay: Microdialysis: extracellular acetylcholine in the brain of freely moving rats; format: in vivo, Sprague-Dawley rats; details: rat, subcutaneously 2.5-10 mg/kg
# Procedure: The animals were administered 1-[2-(2,4-dimethylphenylsulfanyl)phenyl]-piparazine, HBr salt.
# Male Sprague-Dawley rats, initially weighing 275-300 g, were used. The animals were housed under a 12-hr light/dark cycle under controlled conditions for regular in-door temperature (21±2° C.) and humidity (55±5%) with food and tap water available ad libitum.
# Rats were anaesthetised with hypnorm/dormicum (2 ml/kg) and intracerebral guide cannulas (CMA/12) were stereotaxically implanted into the brain, aiming at positioning the dialysis probe tip in the ventral hippocampus (co-ordinates: 5.6 mm posterior to bregma, lateral −5.0 mm, 7.0 mm ventral to dura) or in the prefrontal cortex (co-ordinates: 3.2 mm anterior to bregma; lateral, 0.8 mm; 4.0 mm ventral to dura). […] The body temperature of the animals was monitored by rectal probe and maintained at 37° C. […]
# The compound dissolved in 10% HPbetaCD and injected subcutaneously (2.5-10 mg/kg). Doses are expressed as mg salt/kg body weight. […]
# Concentration of acetylcholine (ACh) in the dialysates was analysed by means of HPLC with electrochemical detection using a mobile phase consisting of 100 mM disodium hydrogenphosphate, 2.0 mM octane sulfonic acid, 0.5 mM tetramethyl-ammonium chloride and 0.005% MB (ESA), pH 8.0. […] The latter was detected electrochemical by using a platinum electrode (Analytical cell: ESA, model 5040). […]
# [3] = physchem; details: water
# [4] = Solubility in water
# [5] = target: T1, Human 5-HT3A receptor (Homo sapiens, UniProt P46098); assay: Human 5-HT3A receptor functional assay (cloned into oocytes); format: cell-based; details: at higher concentration, read-out: ED50 (agonistic activity)
# T1 sequence (P46098 24-478): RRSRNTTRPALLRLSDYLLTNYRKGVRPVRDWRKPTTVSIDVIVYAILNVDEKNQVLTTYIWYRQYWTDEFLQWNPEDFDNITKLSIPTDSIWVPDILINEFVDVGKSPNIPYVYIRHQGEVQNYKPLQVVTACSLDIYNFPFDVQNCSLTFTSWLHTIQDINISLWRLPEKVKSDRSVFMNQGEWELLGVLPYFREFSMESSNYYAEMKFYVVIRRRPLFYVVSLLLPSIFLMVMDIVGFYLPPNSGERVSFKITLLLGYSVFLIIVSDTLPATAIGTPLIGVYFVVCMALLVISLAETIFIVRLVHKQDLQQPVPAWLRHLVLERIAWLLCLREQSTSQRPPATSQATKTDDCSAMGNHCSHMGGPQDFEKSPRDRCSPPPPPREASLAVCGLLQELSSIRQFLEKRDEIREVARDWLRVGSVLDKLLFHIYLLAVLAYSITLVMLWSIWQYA
# Excerpt: As shown in example 1, the compounds of the present invention are potent inhibitors of the human serotonin transporter, i.e. they inhibit serotonin reuptake. Moreover, the compounds are potent antagonists at the mouse, rat, guinea pig and canine 5-HT3 receptor. […] Thus, at low concentrations compounds of the present invention display a marked antagonism at the human 5-HT3 receptor as observed on the 5-HT3 receptor from other species.
# [6] = target: Rat serotonin transporter (Rattus norvegicus, UniProt P31652); assay: Rat serotonin transporter, blockade of 5-HT uptake; format: biochemical
# Chain of Rat serotonin transporter (P31652 whole entry): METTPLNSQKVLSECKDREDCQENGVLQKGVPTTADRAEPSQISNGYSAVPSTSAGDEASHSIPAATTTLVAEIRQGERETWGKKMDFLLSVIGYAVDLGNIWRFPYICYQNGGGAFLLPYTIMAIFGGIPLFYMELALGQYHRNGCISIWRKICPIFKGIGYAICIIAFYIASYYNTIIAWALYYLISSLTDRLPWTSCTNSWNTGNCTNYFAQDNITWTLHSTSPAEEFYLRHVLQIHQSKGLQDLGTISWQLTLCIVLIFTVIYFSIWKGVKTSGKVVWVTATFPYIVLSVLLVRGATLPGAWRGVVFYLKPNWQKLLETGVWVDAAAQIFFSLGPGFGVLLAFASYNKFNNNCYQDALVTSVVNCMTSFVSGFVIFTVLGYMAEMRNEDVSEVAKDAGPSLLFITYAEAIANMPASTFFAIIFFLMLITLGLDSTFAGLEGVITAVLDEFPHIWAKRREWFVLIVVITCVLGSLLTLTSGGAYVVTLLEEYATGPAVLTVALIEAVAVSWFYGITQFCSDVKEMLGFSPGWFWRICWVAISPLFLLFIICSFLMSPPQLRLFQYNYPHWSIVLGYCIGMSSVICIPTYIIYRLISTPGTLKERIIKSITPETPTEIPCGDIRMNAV
# [7] = Hygroscopicity (water absorption versus relative humidity); format: physicochemical
structure (smiles),measurement,setting,value
"Br.Cc1ccc(Sc2ccccc2N2CCNCC2)c(C)c1 [1-[2-(2,4-dimethylphenylsulfanyl)phenyl]piperazine HBr salt]",time spent freezing during the retention test,[1]; 5 mg/kg s.c. 1 h prior to acquisition,39.24±13.76%
same,freezing behaviour during the memory test,"[1]; 5 mg/kg s.c. 1 h prior to the retention test, p<0.05",12.86±3.57%
same,time spent freezing during the retention test,"[1]; 5 mg/kg s.c. after the acquisition session, p<0.05",45.58±4.50%
same,time spent freezing during the retention test,"[1]; 10 mg/kg s.c. 1 h prior to acquisition, p<0.01",52.15±5.68%
same,contextual memory,[1]; rats,enhances contextual memory
same,baseline freezing behaviour before the foot shock,"[1]; rats, 1, 5 and 10 mg/kg s.c. 1 h prior to acquisition",does not affect
same,extra-cellular levels of ACh in prefrontal cortex,[2]; FIG. 19a,significantly increased
same,extra-cellular levels of ACh in ventral hippocampus,[2]; FIG. 19b,significantly increased
"Cc1ccc(Sc2ccccc2N2CCNCC2)c(C)c1.O=C(O)C(O)C(O)C(=O)O [L-(+)-tartrate, 1-[2-(2,4-Dimethylphenylsulfanyl)-phenyl]piperazine (+)-tartaric acid]",solubility,[3],~400 µg/mL
"Br.Cc1ccc(Sc2ccccc2N2CCNCC2)c(C)c1 [beta form of the hydrobromide, 1-[2-(2,4-Dimethylphenylsulfanyl)-phenyl]piperazine hydrobromide]",solubility in water,[4]; hydrobromide,1200 µg/mL
"Cc1ccc(Sc2ccccc2N2CCNCC2)c(C)c1 [compound I, 1-[2-(2,4-dimethylphenylsulfanyl)-phenyl]piperazine]",EC50,[5],2.1 µM
same,IC50,[6],0.0053 µM
"Cc1ccc(Sc2ccccc2N2CCNCC2)c(C)c1 [crystalline base, 1-[2-(2,4-Dimethylphenylsulfanyl)-phenyl]piperazine]",hygroscopicity,[7],not hygroscopic
same,solubility in water,[4],100 µg/mL
"Br.CCOC(C)=O.Cc1ccc(Sc2ccccc2N2CCNCC2)c(C)c1 [ethyl acetate solvate, 1-[2-(2,4-Dimethylphenylsulfanyl)-phenyl]piperazine HBr EtOAc solvate]",hygroscopicity,[7],hygroscopic
"Cc1ccc(Sc2ccccc2N2CCNCC2)c(C)c1.O=C(O)/C=C/C(=O)O [fumarate, 1-[2-(2,4-Dimethyl-phenylsulfanyl)-phenyl]-piperazine fumarate]",solubility,[3],400 µg/mL
"Br.Cc1ccc(Sc2ccccc2N2CCNCC2)c(C)c1 [gamma form of the hydrobromide, 1-[2-(2,4-Dimethylphenylsulfanyl)-phenyl]piperazine hydrobromide]",water absorbed at 30% RH,[7]; 30% RH at room temperature,about 2%
Br.Cc1ccc(Sc2ccccc2N2CCNCC2)c(C)c1 [hemi hydrate of the hydrobromide],water content,[7]; room temperature and 95% RH,about 3.7%
"Cc1ccc(Sc2ccccc2N2CCNCC2)c(C)c1.Cl [hydrochloride monohydrate, 1-[2-(2,4-Dimethylphenylsulfanyl)-phenyl]piperazine HCl]",hygroscopicity,[7],does not absorb further amount of water
same,solubility,[3],~2000 µg/mL
"Cc1ccc(Sc2ccccc2N2CCNCC2)c(C)c1.O=C(O)/C=C\C(=O)O [maleate, 1-[2-(2,4-Dimethylphenylsulfanyl)-phenyl]piperazine Maleate]",solubility,[3],~1000 µg/mL
"CS(=O)(=O)O.Cc1ccc(Sc2ccccc2N2CCNCC2)c(C)c1 [mesylate, 1-[2-(2,4-Dimethylphenylsulfanyl)-phenyl]piperazine mesylate]",hygroscopicity,[7],hygroscopic
same,solubility,[3],> 45000 µg/mL
"Cc1ccc(Sc2ccccc2N2CCNCC2)c(C)c1.O=[N+]([O-])O [nitrate, 1-[2-(2,4-Dimethylphenylsulfanyl)-phenyl]piperazine nitrate]",solubility,[3],~800 µg/mL
"Cc1ccc(Sc2ccccc2N2CCNCC2)c(C)c1.O=P(O)(O)O [phosphate, 1-[2-(2,4-Dimethylphenylsulfanyl)-phenyl]piperazine phosphate]",solubility,[3],~1000 µg/mL
"Cc1ccc(Sc2ccccc2N2CCNCC2)c(C)c1.O=S(=O)(O)O [sulphate, 1-[2-(2,4-Dimethylphenylsulfanyl)-phenyl]piperazine sulphate]",solubility,[3],~100 µg/mL
